Tests used:
[1] = HPLC assay, n-butylamine reactivity against a sulfonyl probe mixture; format: physicochemical; conditions: TMG 3.3 equivalents
Method: (§1) The following reagents were prepared and kept at 0° C. prior to use: 0.1 M solution of caffeine in acetonitrile (ACN), 1.0 M solution of n-butylamine, p-cresol, tetramethylguanidine (TMG), acetic acid in ACN, and 10 mM solution of the probes in a mixture of DMF-ACN (v/v=10:90) are made.
(ii) n-Butylamine reactivity against a probe mixture: Reactivity of sulfonyl probes against n-butylamine (3.3 eq) was performed as described above except the amount of TMG was fixed at 3.3 eq.

[2] = system: HEK293T, Jurkat cells; experiment: Live cell chemical proteomic profiling with SuTEx probes; format: cell-based, human; conditions: 100 μM, 2 hr, 37° C.; membrane and soluble fractions; both probes
Method: Cells grown to ˜90% confluency in 10 cm plates were treated with DMSO vehicle or sulfonyl-triazole probe (10 μL of 1000×DMSO stock) in serum-free media for the indicated concentrations and times at 37° C. with 5% CO2. After treatment, cells were washed with cold PBS twice before harvesting and preparation for gel-based chemical proteomic evaluation as described above. For LC-MS studies, protein concentrations were normalized to 2.3 mg/mL and 432 μL (for 1 mg final protein amount) were used for sample preparation as detailed below.
Proteomes were diluted to 2.3 mg/mL in PBS and sample aliquots (432 μL) were treated with sulfonyl-triazole or -fluoride probes at the indicated concentrations (5 μL, 100× stock in DMSO), mixed gently and incubated for 1 h at room temperature. Probe-modified proteomes were subjected to CuAAC conjugation to desthiobiotin-PEG3-azide (10 μL of 10 mM stock in DMSO; final concentration of 200 μM) using TCEP (10 μL of fresh 50 mM stock in water; 1 mM final concentration), TBTA ligand (33 μL of a 1.7 mM 4:1 t-butanol/DMSO stock, 100 μM final concentration), and CuSO4 (10 μL of 50 mM stock, 1 mM final concentration). Samples were mixed by vortexing and then incubated for 1 h at room temperature. Excess reagents were removed by chloroform-methanol extraction as previously described^51. […]

[3] = HPLC assay, p-cresol reactivity against a sulfonyl probe mixture; format: physicochemical; conditions: TMG 1.1 equivalents, 0° C.
Method: as §1
(i) p-Cresol reactivity against a probe mixture: A solution of p-cresol (16.5 μmol, 3.3 eq) was premixed with 1.1, 2.2, or 3.3 eq of TMG. To initiate the reaction, the p-cresol/TMG solution was added to a sulfonyl probe mixture of HHS-475/HHS-482/HHS-SF-1 (500 μL, 5 μmol, 1.0 eq each) and the reaction was kept at 0° C. The reaction progress was monitored by taking out a 50.0 μL aliquot of the reaction mixture at various time points followed by addition of a 10 μL quenching solution of acetic acid (0.5 M final, 5.0 μmol) and the internal caffeine standard (0.05 M final, 0.5 μmol). Sample (1.0 μL) was injected and analyzed by reverse-phase HPLC on a Shimadzu 1100 Series spectrometer (Shimadzu, Kyoto, Japan) with UV detection at 254 nm. Reaction progress was evaluated by monitoring consumption of sulfonyl probes because all probes generate a shared p-cresol and n-butylamine product. Chromatographic separation was performed using a Phenomenex Kinetex C18 column (2.6 μm, 50 mm×4.6 mm, Phemonenex, Torrance, California, United States of America). […]

[4] = HPLC reactivity assay with glutathione (GSH stability); format: physicochemical; conditions: 5×GSH, basic conditions (TMG)
Method: Glutathione (GSH) adduction to compounds is a mechanism of metabolism for compounds administered to animals and humans. Accordingly, an HPLC reactivity assay^72 was performed to evaluate whether sulfonyl-triazoles (HHS-475) react with GSH. HHS-475 (see Example 1) was used as an exemplary SuTEx compound. Initially, the HPLC assay was used to monitor the rapid reaction of HHS-475 with the model nucleophile p-cresol (as a mimic of the tyrosine side chain) under basic conditions (TMG). […] The 5×GSH was used because GSH is typically found at high concentrations in vivo.

reaction with GSH [4]: negligible reaction
Compound: C#CCNC(=O)c1ccc(S(=O)(=O)n2cncn2)cc1 [HHS-475, 4-((1H-1,2,4-Triazol-1-yl)sulfonyl)-N-(prop-2-yn-1-yl)benzamide]
time to complete reaction with n-butylamine [1]: 6 h
distinct tyrosine sites measured in live cell studies, in total per cell line [2]: ~3,500 sites
time to consumption of probe by p-cresol [3]: ≤ 30 min
